Source: the NIST ThermoML archive (doi:10.1021/je100687x)
Numbers after ± are expanded uncertainties.

Assay: xn = mol fraction of the nth substance listed
Settings: 101 kPa, Liquid; for electrical conductivity: Crison GLP 31+ conductivimeter

CCCCn1cc[n+](C)c1.F[B-](F)(F)F [1-butyl-3-methylimidazolium tetrafluoroborate] + CCO
Settings	electrical conductivity [S/m]	viscosity [mPa·s]
288.15 K, x2 = 0	–	173.5 ± 23
288.15 K, x2 = 0.0765	–	121.4 ± 12
288.15 K, x2 = 0.199	–	69.06 ± 2.6
288.15 K, x2 = 0.2894	–	45.23 ± 1.4
288.15 K, x2 = 0.3918	–	28.39 ± 0.89
288.15 K, x2 = 0.4976	–	18.13 ± 0.57
288.15 K, x2 = 0.6001	–	12.35 ± 0.4
288.15 K, x2 = 0.717	–	7.86 ± 0.26
288.15 K, x2 = 0.7998	–	5.676 ± 0.19
288.15 K, x2 = 0.9014	–	3.06 ± 0.12
298.15 K, x2 = 0	0.352 ± 0.001	99.2 ± 7.4
298.15 K, x2 = 0.0368	0.393 ± 0.001	–
298.15 K, x2 = 0.0765	–	72.49 ± 3.1
298.15 K, x2 = 0.1136	0.522 ± 0.001	–
298.15 K, x2 = 0.1492	0.594 ± 0.001	–
298.15 K, x2 = 0.199	–	44.05 ± 1.4
298.15 K, x2 = 0.2894	–	30.15 ± 0.94
298.15 K, x2 = 0.2992	0.939 ± 0.001	–
298.15 K, x2 = 0.3918	–	19.7 ± 0.62
298.15 K, x2 = 0.4162	1.268 ± 0.001	–
298.15 K, x2 = 0.4976	–	12.97 ± 0.42
298.15 K, x2 = 0.5137	1.551 ± 0.001	–
298.15 K, x2 = 0.5866	1.729 ± 0.001	–
298.15 K, x2 = 0.6001	–	9.038 ± 0.3
298.15 K, x2 = 0.6426	1.826 ± 0.001	–
298.15 K, x2 = 0.6863	1.871 ± 0.001	–
298.15 K, x2 = 0.717	–	5.25 ± 0.18
298.15 K, x2 = 0.7204	1.874 ± 0.001	–
298.15 K, x2 = 0.7498	1.859 ± 0.001	–
298.15 K, x2 = 0.7947	1.745 ± 0.001	–
298.15 K, x2 = 0.7998	–	4.286 ± 0.15
298.15 K, x2 = 0.8394	1.564 ± 0.001	–
298.15 K, x2 = 0.8763	1.343 ± 0.001	–
298.15 K, x2 = 0.8835	1.297 ± 0.001	–
298.15 K, x2 = 0.8908	1.249 ± 0.002	–
298.15 K, x2 = 0.9014	–	2.371 ± 0.095
298.15 K, x2 = 0.9034	1.155 ± 0.002	–
298.15 K, x2 = 0.9134	1.077 ± 0.002	–
298.15 K, x2 = 0.9217	1.01 ± 0.01	–
298.15 K, x2 = 0.9287	0.94 ± 0.01	–
298.15 K, x2 = 0.9347	0.874 ± 0.002	–
298.15 K, x2 = 0.9399	0.825 ± 0.002	–
298.15 K, x2 = 0.9493	0.733 ± 0.002	–
298.15 K, x2 = 0.9564	0.658 ± 0.002	–
298.15 K, x2 = 0.9617	0.597 ± 0.002	–
298.15 K, x2 = 0.9668	0.536 ± 0.003	–
298.15 K, x2 = 0.9755	0.423 ± 0.003	–
298.15 K, x2 = 0.9897	0.221 ± 0.003	–
298.15 K, x2 = 0.9916	0.194 ± 0.0032	–
298.15 K, x2 = 0.9934	0.162 ± 0.0036	–
298.15 K, x2 = 0.9972	0.0851 ± 0.0041	–
308.15 K, x2 = 0	–	61.3 ± 1.8
308.15 K, x2 = 0.0765	–	46.39 ± 1.4
308.15 K, x2 = 0.199	–	29.81 ± 0.93
308.15 K, x2 = 0.2894	–	21.18 ± 0.67
308.15 K, x2 = 0.3918	–	14.45 ± 0.46
308.15 K, x2 = 0.4976	–	9.836 ± 0.32
308.15 K, x2 = 0.6001	–	7.026 ± 0.23
308.15 K, x2 = 0.717	–	4.056 ± 0.15
308.15 K, x2 = 0.7998	–	3.363 ± 0.12
308.15 K, x2 = 0.9014	–	1.947 ± 0.082
318.15 K, x2 = 0	–	40.4 ± 1.3
318.15 K, x2 = 0.0765	–	31.43 ± 0.98
318.15 K, x2 = 0.199	–	21.16 ± 0.67
318.15 K, x2 = 0.2894	–	15.5 ± 0.49
318.15 K, x2 = 0.3918	–	11.01 ± 0.36
318.15 K, x2 = 0.4976	–	7.691 ± 0.26
318.15 K, x2 = 0.6001	–	5.567 ± 0.19
318.15 K, x2 = 0.717	–	3.252 ± 0.12
318.15 K, x2 = 0.7998	–	2.723 ± 0.11
318.15 K, x2 = 0.9014	–	1.641 ± 0.073

CCCCCCn1cc[n+](C)c1.F[B-](F)(F)F [1-hexyl-3-methylimidazolium tetrafluoroborate] + CCO
Settings	electrical conductivity [S/m]	viscosity [mPa·s]
288.15 K, x2 = 0	–	357.5 ± 76
288.15 K, x2 = 0.1	–	207.2 ± 32
288.15 K, x2 = 0.197	–	118.9 ± 11
288.15 K, x2 = 0.298	–	69.02 ± 2.6
288.15 K, x2 = 0.3877	–	48.92 ± 1.5
288.15 K, x2 = 0.4921	–	27.71 ± 0.87
288.15 K, x2 = 0.6009	–	16.92 ± 0.54
288.15 K, x2 = 0.7	–	9.866 ± 0.32
288.15 K, x2 = 0.8002	–	5.545 ± 0.19
288.15 K, x2 = 0.902	–	2.893 ± 0.11
298.15 K, x2 = 0	0.126 ± 0.001	190.9 ± 28
298.15 K, x2 = 0.1	–	119.2 ± 11
298.15 K, x2 = 0.197	–	72.6 ± 3.1
298.15 K, x2 = 0.2439	0.33 ± 0.001	–
298.15 K, x2 = 0.298	–	43.77 ± 1.4
298.15 K, x2 = 0.3877	–	32.06 ± 1
298.15 K, x2 = 0.3981	0.565 ± 0.001	–
298.15 K, x2 = 0.4566	0.66 ± 0.001	–
298.15 K, x2 = 0.4921	–	18.86 ± 0.6
298.15 K, x2 = 0.507	0.769 ± 0.001	–
298.15 K, x2 = 0.5491	0.877 ± 0.001	–
298.15 K, x2 = 0.5861	0.947 ± 0.001	–
298.15 K, x2 = 0.6009	–	12.09 ± 0.39
298.15 K, x2 = 0.6189	1.034 ± 0.001	–
298.15 K, x2 = 0.645	1.083 ± 0.001	–
298.15 K, x2 = 0.6708	1.129 ± 0.001	–
298.15 K, x2 = 0.6938	1.17 ± 0.001	–
298.15 K, x2 = 0.7	–	7.513 ± 0.25
298.15 K, x2 = 0.7145	1.206 ± 0.001	–
298.15 K, x2 = 0.733	1.216 ± 0.001	–
298.15 K, x2 = 0.7495	1.222 ± 0.001	–
298.15 K, x2 = 0.7648	1.244 ± 0.001	–
298.15 K, x2 = 0.7909	1.25 ± 0.001	–
298.15 K, x2 = 0.8002	–	4.191 ± 0.15
298.15 K, x2 = 0.8217	1.225 ± 0.001	–
298.15 K, x2 = 0.8454	1.19 ± 0.001	–
298.15 K, x2 = 0.8637	1.144 ± 0.001	–
298.15 K, x2 = 0.8755	1.109 ± 0.001	–
298.15 K, x2 = 0.8857	1.07 ± 0.001	–
298.15 K, x2 = 0.8946	1.033 ± 0.001	–
298.15 K, x2 = 0.902	–	2.284 ± 0.092
298.15 K, x2 = 0.9042	0.98 ± 0.001	–
298.15 K, x2 = 0.9133	0.929 ± 0.001	–
298.15 K, x2 = 0.9214	0.879 ± 0.002	–
298.15 K, x2 = 0.9267	0.832 ± 0.002	–
298.15 K, x2 = 0.9347	0.778 ± 0.002	–
298.15 K, x2 = 0.9437	0.702 ± 0.002	–
298.15 K, x2 = 0.9526	0.621 ± 0.002	–
298.15 K, x2 = 0.9593	0.57 ± 0.002	–
298.15 K, x2 = 0.9686	0.473 ± 0.002	–
298.15 K, x2 = 0.9758	0.393 ± 0.002	–
298.15 K, x2 = 0.9803	0.331 ± 0.003	–
298.15 K, x2 = 0.9858	0.262 ± 0.003	–
298.15 K, x2 = 0.9892	0.214 ± 0.003	–
298.15 K, x2 = 0.9934	0.147 ± 0.003	–
298.15 K, x2 = 0.996	0.102 ± 0.004	–
298.15 K, x2 = 0.9979	0.0636 ± 0.0037	–
308.15 K, x2 = 0	–	110.3 ± 9.5
308.15 K, x2 = 0.1	–	74.2 ± 3.3
308.15 K, x2 = 0.197	–	46.59 ± 1.4
308.15 K, x2 = 0.298	–	29.55 ± 0.92
308.15 K, x2 = 0.3877	–	22.1 ± 0.69
308.15 K, x2 = 0.4921	–	13.73 ± 0.44
308.15 K, x2 = 0.6009	–	9.004 ± 0.3
308.15 K, x2 = 0.7	–	5.487 ± 0.19
308.15 K, x2 = 0.8002	–	3.278 ± 0.12
308.15 K, x2 = 0.902	–	1.867 ± 0.08
318.15 K, x2 = 0	–	68.5 ± 2.6
318.15 K, x2 = 0.1	–	48.17 ± 1.5
318.15 K, x2 = 0.197	–	32.05 ± 1
318.15 K, x2 = 0.298	–	21.19 ± 0.67
318.15 K, x2 = 0.3877	–	16.11 ± 0.51
318.15 K, x2 = 0.4921	–	10.3 ± 0.34
318.15 K, x2 = 0.6009	–	6.945 ± 0.23
318.15 K, x2 = 0.7	–	4.498 ± 0.16
318.15 K, x2 = 0.8002	–	2.636 ± 0.1
318.15 K, x2 = 0.902	–	1.506 ± 0.069
